{"source": "patent US20240285634A1", "about": "“COMPOUND AND METHOD FOR TREATING CHEMOTHERAPY-ASSOCIATED GASTROINTESTINAL SIDE EFFECTS” (ONQUALITY PHARMACEUTICALS CHINA LTD., priority 2021, published 2024)", "test_system": "Chemotherapeutic agent-caused constipation models of Balb/c mice", "test": "Relieving effect on constipation caused by a chemotherapeutic agent (Examples 202-364)", "format": "in vivo", "excerpt": "Construction of mouse animal models: Chemotherapeutic agent-caused constipation models of Balb/c mice were constructed according to the administration mode and frequency of the chemotherapeutic agent as shown in Table 4. […] Thus, chemotherapeutic agent-caused constipation models of mice are very good models to mimic constipation caused by the chemotherapeutic agent.\nBalb/c mice were fed for 1 week, and then divided into groups. The experiment was divided into a control group, a chemotherapeutic agent group, and a group of the compound as shown in Formula I, each of which comprised 10 mice, to perform the administration experiment, for which the administration dosage, mode, time and frequency were shown in Table 4. The control group: being injected or intragastrically administered with the same solvent as that used in the group of the compound as shown in Formula I (the administration mode and time were shown in Table 4), and then being injected or intragastrically administered with the same solvent as that used in the chemotherapeutic agent group (the administration mode was shown in Table 4); the chemotherapeutic agent group: being injected or intragastrically administered with the same solvent as that used in the group of the compound as shown in Formula I (the administration mode and time was shown in Table 4), and then being injected or intragastrically administered with the chemotherapeutic agent (the type, administration mode and dosage were shown in Table 4); the group of the compound as shown in Formula I: being injected or intragastrically administered with the compound as shown in Formula I (the administration mode and time was shown in Table 4), and then being administered with the chemotherapeutic agent (the administration mode and dosage were shown in Table 4).\nThe feces reduction rate was calculated with reference to the method of Ji Eun Kim (Lab Anim Res. 2016 December; 32(4): 231-240.). Feces reduction rate (%)=(the control group−the chemotherapeutic agent group or the group of the compound as shown in Formula I)/the control group*100%\nIt is regarded as effective remission when the feces reduction rate of mice in the group of the compound as shown in Formula I is reduced compared with that in the chemotherapeutic agent group.\nThe feces amount of mice within 3 hours was observed and recorded every day. At the end of the experiment, the number of mice in the group of the compound as shown in Formula I whose feces reduction rate was lower than that of mice in the chemotherapeutic agent group was recorded. Table 4 lists various animal experiment combinations of chemotherapeutic agents and the compound as shown in Formula I, as well as the corresponding experimental results."}
{"smiles": "CN1CCN(c2ccc(Nc3ncc4cc5n(c4n3)C3(CCCCC3)CNC5=O)nc2)CC1", "note": "[Compound I, Trilaciclib]", "values": [{"measurement": "Relative remission rate (%)", "setting": "Example 202, Fluorouracil (5-Fu) intraperitoneal injection 175 mg/kg single, compound intravenous injection 100 mg/kg, frequency 8, 0.5 h before chemotherapeutic agent, cycle 10 days", "result": 40, "unit": "%"}, {"measurement": "Relative remission rate (%)", "setting": "Example 203, Fluorouracil (5-Fu) intraperitoneal injection 175 mg/kg single, compound intravenous injection 100 mg/kg, frequency 8, 1 h before chemotherapeutic agent, cycle 10 days", "result": 30, "unit": "%"}, {"measurement": "Relative remission rate (%)", "setting": "Example 204, Fluorouracil (5-Fu) intraperitoneal injection 175 mg/kg single, compound intravenous injection 100 mg/kg, frequency 8, 2 h before chemotherapeutic agent, cycle 10 days", "result": 40, "unit": "%"}, {"measurement": "Relative remission rate (%)", "setting": "Example 205, Fluorouracil (5-Fu) intraperitoneal injection 175 mg/kg single, compound intravenous injection 100 mg/kg, frequency 8, 3 h before chemotherapeutic agent, cycle 10 days", "result": 40, "unit": "%"}, {"measurement": "Relative remission rate (%)", "setting": "Example 206, Fluorouracil (5-Fu) intraperitoneal injection 175 mg/kg single, compound intravenous injection 100 mg/kg, frequency 8, 4 h before chemotherapeutic agent, cycle 10 days", "result": 30, "unit": "%"}, {"measurement": "Relative remission rate (%)", "setting": "Example 207, Fluorouracil (5-Fu) intraperitoneal injection 175 mg/kg single, compound intravenous injection 100 mg/kg, frequency 8, 5 h before chemotherapeutic agent, cycle 10 days", "result": 20, "unit": "%"}, {"measurement": "Relative remission rate (%)", "setting": "Example 208, Fluorouracil (5-Fu) intraperitoneal injection 175 mg/kg single, compound intravenous injection 100 mg/kg, frequency 8, 6 h before chemotherapeutic agent, cycle 10 days", "result": 50, "unit": "%"}, {"measurement": "Relative remission rate (%)", "setting": "Example 209, Fluorouracil (5-Fu) intraperitoneal injection 175 mg/kg single, compound intravenous injection 100 mg/kg, frequency 8, 7 h before chemotherapeutic agent, cycle 10 days", "result": 50, "unit": "%"}, {"measurement": "Relative remission rate (%)", "setting": "Example 210, Fluorouracil (5-Fu) intraperitoneal injection 175 mg/kg single, compound intravenous injection 100 mg/kg, frequency 8, 8 h before chemotherapeutic agent, cycle 10 days", "result": 40, "unit": "%"}, {"measurement": "Relative remission rate (%)", "setting": "Example 211, Fluorouracil (5-Fu) intraperitoneal injection 175 mg/kg single, compound intravenous injection 100 mg/kg, frequency 8, 9 h before chemotherapeutic agent, cycle 10 days", "result": 40, "unit": "%"}, {"measurement": "Relative remission rate (%)", "setting": "Example 212, Fluorouracil (5-Fu) intraperitoneal injection 175 mg/kg single, compound intravenous injection 100 mg/kg, frequency 8, 10 h before chemotherapeutic agent, cycle 10 days", "result": 30, "unit": "%"}, {"measurement": "Relative remission rate (%)", "setting": "Example 213, Fluorouracil (5-Fu) intraperitoneal injection 175 mg/kg single, compound intravenous injection 100 mg/kg, frequency 8, 11 h before chemotherapeutic agent, cycle 10 days", "result": 50, "unit": "%"}, {"measurement": "Relative remission rate (%)", "setting": "Example 214, Fluorouracil (5-Fu) intraperitoneal injection 175 mg/kg single, compound intravenous injection 12.5 mg/kg, frequency 8, 12 h before chemotherapeutic agent, cycle 10 days", "result": 20, "unit": "%"}, {"measurement": "Relative remission rate (%)", "setting": "Example 215, Fluorouracil (5-Fu) intraperitoneal injection 175 mg/kg single, compound intravenous injection 25 mg/kg, frequency 8, 12 h before chemotherapeutic agent, cycle 10 days", "result": 30, "unit": "%"}, {"measurement": "Relative remission rate (%)", "setting": "Example 216, Fluorouracil (5-Fu) intraperitoneal injection 175 mg/kg single, compound intravenous injection 50 mg/kg, frequency 8, 12 h before chemotherapeutic agent, cycle 10 days", "result": 30, "unit": "%"}, {"measurement": "Relative remission rate (%)", "setting": "Example 217, Fluorouracil (5-Fu) intraperitoneal injection 175 mg/kg single, compound intravenous injection 100 mg/kg, frequency 8, 12 h before chemotherapeutic agent, cycle 10 days", "result": 40, "unit": "%"}, {"measurement": "Relative remission rate (%)", "setting": "Example 218, Fluorouracil (5-Fu) intraperitoneal injection 175 mg/kg single, compound intravenous injection 150 mg/kg, frequency 8, 12 h before chemotherapeutic agent, cycle 10 days", "result": 60, "unit": "%"}, {"measurement": "Relative remission rate (%)", "setting": "Example 219, Fluorouracil (5-Fu) intraperitoneal injection 175 mg/kg single, compound intravenous injection 240 mg/kg, frequency 8, 12 h before chemotherapeutic agent, cycle 10 days", "result": 60, "unit": "%"}, {"measurement": "Relative remission rate (%)", "setting": "Example 220, Fluorouracil (5-Fu) intraperitoneal injection 175 mg/kg single, compound intravenous injection 100 mg/kg, frequency 8, 13 h before chemotherapeutic agent, cycle 10 days", "result": 40, "unit": "%"}, {"measurement": "Relative remission rate (%)", "setting": "Example 221, Fluorouracil (5-Fu) intraperitoneal injection 175 mg/kg single, compound intravenous injection 100 mg/kg, frequency 8, 14 h before chemotherapeutic agent, cycle 10 days", "result": 40, "unit": "%"}, {"measurement": "Relative remission rate (%)", "setting": "Example 222, Fluorouracil (5-Fu) intraperitoneal injection 175 mg/kg single, compound intravenous injection 100 mg/kg, frequency 8, 16 h before chemotherapeutic agent, cycle 10 days", "result": 50, "unit": "%"}, {"measurement": "Relative remission rate (%)", "setting": "Example 223, Fluorouracil (5-Fu) intraperitoneal injection 175 mg/kg single, compound intravenous injection 100 mg/kg, frequency 8, 18 h before chemotherapeutic agent, cycle 10 days", "result": 60, "unit": "%"}, {"measurement": "Relative remission rate (%)", "setting": "Example 224, Fluorouracil (5-Fu) intraperitoneal injection 175 mg/kg single, compound intravenous injection 100 mg/kg, frequency 8, 20 h before chemotherapeutic agent, cycle 10 days", "result": 60, "unit": "%"}, {"measurement": "Relative remission rate (%)", "setting": "Example 225, Fluorouracil (5-Fu) intraperitoneal injection 175 mg/kg single, compound intravenous injection 100 mg/kg, frequency 8, 22 h before chemotherapeutic agent, cycle 10 days", "result": 30, "unit": "%"}, {"measurement": "Relative remission rate (%)", "setting": "Example 226, Fluorouracil (5-Fu) intraperitoneal injection 175 mg/kg single, compound intravenous injection 100 mg/kg, frequency 8, 24 h before chemotherapeutic agent, cycle 10 days", "result": 30, "unit": "%"}, {"measurement": "Relative remission rate (%)", "setting": "Example 227, Fluorouracil (5-Fu) intraperitoneal injection 175 mg/kg single, compound intravenous injection 100 mg/kg, frequency 8, 48 h before chemotherapeutic agent, cycle 10 days", "result": 0, "unit": "%"}, {"measurement": "Relative remission rate (%)", "setting": "Example 228, Fluorouracil (5-Fu) intravenous injection 250 mg/kg single, compound intraperitoneal injection 100 mg/kg single, 0.5 h before chemotherapeutic agent, cycle 10 days", "result": 30, "unit": "%"}, {"measurement": "Relative remission rate (%)", "setting": "Example 229, Fluorouracil (5-Fu) intravenous injection 250 mg/kg single, compound intraperitoneal injection 100 mg/kg single, 1 h before chemotherapeutic agent, cycle 10 days", "result": 40, "unit": "%"}, {"measurement": "Relative remission rate (%)", "setting": "Example 230, Fluorouracil (5-Fu) intravenous injection 250 mg/kg single, compound intraperitoneal injection 100 mg/kg single, 2 h before chemotherapeutic agent, cycle 10 days", "result": 40, "unit": "%"}, {"measurement": "Relative remission rate (%)", "setting": "Example 231, Fluorouracil (5-Fu) intravenous injection 250 mg/kg single, compound intraperitoneal injection 100 mg/kg single, 4 h before chemotherapeutic agent, cycle 10 days", "result": 60, "unit": "%"}, {"measurement": "Relative remission rate (%)", "setting": "Example 232, Fluorouracil (5-Fu) intravenous injection 250 mg/kg single, compound intraperitoneal injection 100 mg/kg single, 6 h before chemotherapeutic agent, cycle 10 days", "result": 60, "unit": "%"}, {"measurement": "Relative remission rate (%)", "setting": "Example 233, Fluorouracil (5-Fu) intravenous injection 250 mg/kg single, compound intraperitoneal injection 100 mg/kg single, 8 h before chemotherapeutic agent, cycle 10 days", "result": 50, "unit": "%"}, {"measurement": "Relative remission rate (%)", "setting": "Example 234, Fluorouracil (5-Fu) intravenous injection 250 mg/kg single, compound intraperitoneal injection 100 mg/kg single, 10 h before chemotherapeutic agent, cycle 10 days", "result": 50, "unit": "%"}, {"measurement": "Relative remission rate (%)", "setting": "Example 235, Fluorouracil (5-Fu) intravenous injection 250 mg/kg single, compound intraperitoneal injection 100 mg/kg single, 12 h before chemotherapeutic agent, cycle 10 days", "result": 70, "unit": "%"}, {"measurement": "Relative remission rate (%)", "setting": "Example 236, Fluorouracil (5-Fu) intravenous injection 250 mg/kg single, compound intraperitoneal injection 100 mg/kg single, 14 h before chemotherapeutic agent, cycle 10 days", "result": 40, "unit": "%"}, {"measurement": "Relative remission rate (%)", "setting": "Example 237, Fluorouracil (5-Fu) intravenous injection 250 mg/kg single, compound intraperitoneal injection 100 mg/kg single, 16 h before chemotherapeutic agent, cycle 10 days", "result": 40, "unit": "%"}, {"measurement": "Relative remission rate (%)", "setting": "Example 238, Fluorouracil (5-Fu) intravenous injection 250 mg/kg single, compound intraperitoneal injection 100 mg/kg single, 18 h before chemotherapeutic agent, cycle 10 days", "result": 50, "unit": "%"}, {"measurement": "Relative remission rate (%)", "setting": "Example 239, Fluorouracil (5-Fu) intravenous injection 250 mg/kg single, compound intraperitoneal injection 100 mg/kg single, 20 h before chemotherapeutic agent, cycle 10 days", "result": 50, "unit": "%"}, {"measurement": "Relative remission rate (%)", "setting": "Example 240, Fluorouracil (5-Fu) intravenous injection 250 mg/kg single, compound intraperitoneal injection 100 mg/kg single, 24 h before chemotherapeutic agent, cycle 10 days", "result": 50, "unit": "%"}, {"measurement": "Relative remission rate (%)", "setting": "Example 287, Irinotecan (CPT-11) intraperitoneal injection 260 mg/kg single, compound intravenous injection 150 mg/kg single, 1 h before chemotherapeutic agent, cycle 8 days", "result": 40, "unit": "%"}, {"measurement": "Relative remission rate (%)", "setting": "Example 288, Irinotecan (CPT-11) intraperitoneal injection 260 mg/kg single, compound intravenous injection 150 mg/kg single, 2 h before chemotherapeutic agent, cycle 8 days", "result": 50, "unit": "%"}, {"measurement": "Relative remission rate (%)", "setting": "Example 289, Irinotecan (CPT-11) intraperitoneal injection 260 mg/kg single, compound intravenous injection 150 mg/kg single, 3 h before chemotherapeutic agent, cycle 8 days", "result": 50, "unit": "%"}, {"measurement": "Relative remission rate (%)", "setting": "Example 290, Irinotecan (CPT-11) intraperitoneal injection 260 mg/kg single, compound intravenous injection 150 mg/kg single, 4 h before chemotherapeutic agent, cycle 8 days", "result": 40, "unit": "%"}, {"measurement": "Relative remission rate (%)", "setting": "Example 291, Irinotecan (CPT-11) intraperitoneal injection 260 mg/kg single, compound intravenous injection 150 mg/kg single, 5 h before chemotherapeutic agent, cycle 8 days", "result": 30, "unit": "%"}, {"measurement": "Relative remission rate (%)", "setting": "Example 292, Irinotecan (CPT-11) intraperitoneal injection 260 mg/kg single, compound intravenous injection 150 mg/kg single, 6 h before chemotherapeutic agent, cycle 8 days", "result": 40, "unit": "%"}, {"measurement": "Relative remission rate (%)", "setting": "Example 293, Irinotecan (CPT-11) intraperitoneal injection 260 mg/kg single, compound intravenous injection 150 mg/kg single, 7 h before chemotherapeutic agent, cycle 8 days", "result": 50, "unit": "%"}, {"measurement": "Relative remission rate (%)", "setting": "Example 294, Irinotecan (CPT-11) intraperitoneal injection 260 mg/kg single, compound intravenous injection 150 mg/kg single, 8 h before chemotherapeutic agent, cycle 8 days", "result": 60, "unit": "%"}]}
